Data: patent US20230077362A1 (CORTEVA AGRISCIENCE LLC, priority 2019, published 2023)
Where two headings read alike, the source gives them in different places.

Columns and labels:
[1] = tested on: Cabbage Looper (Trichoplusia ni) ("CL"), second instar larvae; test: Bioassay on cabbage looper (CL), 128-well diet tray assay; format: in vivo; conditions: for CL rating: C = not tested, D = no activity noticed
How it was run: (§1)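 Sealed trays, 25° C., 14:10 light:dark, 5–7 d. Per-well % mortality recorded, mean of eight wells reported.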

[2] = tested on: Beet Armyworm (Spodoptera exigua) ("BAW"), second instar larvae; test: Bioassay on beet armyworm (BAW), 128-well diet tray assay; format: in vivo; conditions: for pest or weed control at 50 µg/cm2: Spodoptera exigua; for BAW rating: C = not tested, D = no activity noticed
How it was run: as §1

[3] = Trichoplusia ni, read-out: CL (Biological Results, rating)
[4] = read-out: BAW (Biological Results, rating)
[5] = Trichoplusia ni, read-out: CL rating

SMILES | pest or weed control at 50 µg/cm2 [1, 3] [%] | pest or weed control at 50 µg/cm2 [2, 4] [%] | further results
CCc1cc(-c2ncn(-c3ccc(OC(F)(F)F)cc3)n2)ccc1NC(=O)/N=C1\SCC(=O)N1c1cc(N(C)C)ccc1C(C)C [Compound J83, (Z)-1-(3-(5-(Dimethylamino)-2-isopropylphenyl)-4-oxothiazolidin-2-ylidene)-3-(2-ethyl-4-(1-(4-(trifluoromethoxy)phenyl)-1H-1,2,4-triazol-3-yl)phenyl)urea] | 50 to 100 | 50 to 100 | –
CCOCc1ccc(C)cc1N1C(=O)CS/C1=N\C(=O)Nc1ccc(-c2ncn(-c3ccc(OC(F)(F)F)cc3)n2)cc1C(F)F [Compound J214, (Z)-1-(2-(Difluoromethyl)-4-(1-(4-(trifluoromethoxy)phenyl)-1H-1,2,4-triazol-3-yl)phenyl)-3-(3-(2-(ethoxymethyl)-5-methylphenyl)-4-oxothiazolidin-2-ylidene)urea] | 50 to 100 | 50 to 100 | –
CCNc1ccc(C(C)C)c(N2C(=O)CS/C2=N\C(=O)Nc2ccc(-c3ncn(-c4ccc(OC(F)(F)F)cc4)n3)cc2F)c1 [Compound J106, (Z)-1-(3-(5-(Ethylamino)-2-isopropylphenyl)-4-oxothiazolidin-2-ylidene)-3-(2-fluoro-4-(1-(4-(trifluoromethoxy)phenyl)-1H-1,2,4-triazol-3-yl)phenyl)urea] | 50 to 100 | 50 to 100 | –
Cc1ccc(OCCCC(F)(F)F)c(N2C(=O)CS/C2=N\C(=O)Nc2c(F)cc(-c3ncn(-c4ccc(OC(F)(F)F)cc4)n3)cc2F)c1 [Compound J80, (Z)-1-(2,6-Difluoro-4-(1-(4-(trifluoromethoxy)phenyl)-1H-1,2,4-triazol-3-yl)phenyl)-3-(3-(5-methyl-2-(4,4,4-trifluorobutoxy)phenyl)-4-oxothiazolidin-2-ylidene)urea] | 50 to 100 | 50 to 100 | –
CC(C)c1ccc(N(C)C)cc1N1C(=O)CS/C1=N\C(=O)Nc1ccc(-c2ncn(-c3ccc(C#N)cc3)n2)cc1F [Compound J290, (Z)-1-(4-(1-(4-Cyanophenyl)-1H-1,2,4-triazol-3-yl)-2-fluorophenyl)-3-(3-(5-(dimethylamino)-2-isopropylphenyl)-4-oxothiazolidin-2-ylidene)urea] | 50 to 100 | 50 to 100 | –
Cc1ccc(COCC(F)(F)F)c(N2C(=O)CS/C2=N\C(=O)Nc2ccc(-c3ncn(-c4ccc(C(F)(F)F)cc4)n3)cc2)c1 [Compound J332, (Z)-1-(3-(5-Methyl-2-((2,2,2-trifluoroethoxy)methyl)phenyl)-4-oxothiazolidin-2-ylidene)-3-(4-(1-(4-(trifluoromethyl)phenyl)-1H-1,2,4-triazol-3-yl)phenyl)urea] | 50 to 100 | 50 to 100 | –
Cc1cccc(N2C(=O)CS/C2=N\C(=O)Nc2ccc(-c3ncn(-c4cccc(OC(F)(F)F)c4)n3)cc2F)c1COCC(F)(F)F [Compound J706] | – | – | CL rating ([1]; Table ABC, species CL): A (50-100); BAW rating ([2]; Table ABC, species BAW): A (50-100)
Cc1ccc(COCCC(F)(F)F)c(N2C(=O)CS/C2=N\C(=O)Nc2ccc(-c3ncn(-c4ccc(C(F)(F)F)cc4)n3)cc2F)c1 [Compound J547] | – | – | CL rating ([1]; Table ABC, species CL): A (50-100); BAW rating ([2]; Table ABC, species BAW): A (50-100)
Cc1ccc(COCC(F)(F)F)c(N2C(=O)CS/C2=N\C(=O)Nc2ccc(-c3ncn(-c4ccc(OC(F)(F)C(F)(F)F)cc4)n3)cc2F)c1 [Compound J662] | – | – | CL rating ([1]; Table ABC, species CL): A (50-100); BAW rating ([2]; Table ABC, species BAW): A (50-100)
Cc1ccc(C(F)(F)F)cc1N1C(=O)CS/C1=N\C(=O)Nc1ccc(-c2ncn(-c3ccc(OC(F)(F)F)cc3)n2)cc1F [Compound J799, (Z)-1-(2-Fluoro-4-(1-(4-(trifluoromethoxy)phenyl)-1H-1,2,4-triazol-3-yl)phenyl)-3-(3-(2-methyl-5-(trifluoromethyl)phenyl)-4-oxothiazolidin-2-ylidene)urea] | – | – | mortality at 50 µg/cm2 ([1]; Trichoplusia ni, Table ABC, species CL, 128-well diet tray assay, second instar larvae, read-out: CL rating (% control or mortality class)): 50 to 100%; BAW rating (% control or mortality class) ([2]; Table ABC, species BAW, 128-well diet tray assay, second instar larvae): A (50-100)
Cc1ccc(COCC(F)(F)F)c(N2C(=O)CS/C2=N\C(=O)Nc2ccc(-c3ncn(-c4ccc(OCC#N)cc4)n3)cc2C)c1 [Compound J359, (Z)-1-(4-(1-(4-(Cyanomethoxy)phenyl)-1H-1,2,4-triazol-3-yl)-2-methylphenyl)-3-(3-(5-methyl-2-((2,2,2-trifluoroethoxy)methyl)phenyl)-4-oxothiazolidin-2-ylidene)urea] | – | – | pest or weed control at 50 µg/cm2 [1, 5]: 50 to 100%; pest or weed control at 50 µg/cm2 ([2]; read-out: BAW rating): 50 to 100%
CC(=O)c1cc(-c2ncn(-c3ccc(OC(F)(F)F)cc3)n2)ccc1NC(=O)/N=C1\SCC(=O)N1c1cc(C)ccc1C(C)C [Compound J395, (Z)-1-(2-Acetyl-4-(1-(4-(trifluoromethoxy)phenyl)-1H-1,2,4-triazol-3-yl)phenyl)-3-(3-(2-isopropyl-5-methylphenyl)-4-oxothiazolidin-2-ylidene)urea] | – | – | pest or weed control at 50 µg/cm2 [1, 5]: 50 to 100%; pest or weed control at 50 µg/cm2 ([2]; read-out: BAW rating): 50 to 100%
Cc1ccc(Cc2ccccc2)c(N2C(=O)CS/C2=N\C(=O)Nc2ccc(-c3ncn(-c4ccc(C(F)(F)F)cc4)n3)cc2F)c1 [Compound J562, (Z)-1-(3-(2-Benzyl-5-methylphenyl)-4-oxothiazolidin-2-ylidene)-3-(2-fluoro-4-(1-(4-(trifluoromethyl)phenyl)-1H-1,2,4-triazol-3-yl)phenyl)urea] | – | – | pest or weed control at 50 µg/cm2 [1, 5]: 50 to 100%; pest or weed control at 50 µg/cm2 ([2]; read-out: BAW rating): 50 to 100%
CCOCc1ccc(C)cc1N1C(=O)CS/C1=N\C(=O)Nc1ccc(-c2ncn(-c3cccc(OC(F)(F)F)c3)n2)cc1F [Compound J711] | – | – | CL rating ([1]; Table ABC, species CL): A (50-100); BAW rating ([2]; Table ABC, species BAW): A (50-100)
CCc1ccc(COCC(F)(F)F)c(N2C(=O)CS/C2=N\C(=O)Nc2ccc(-c3ncn(-c4ccc(C(F)(F)F)cc4)n3)cc2F)c1 [Compound J642] | – | – | CL rating ([1]; Table ABC, species CL): A (50-100); BAW rating ([2]; Table ABC, species BAW): A (50-100)
Cc1ccc(OCCC(F)(F)F)c(N2C(=O)CS/C2=N\C(=O)Nc2ccc(-c3ncn(-c4ccc(C(F)(F)F)cn4)n3)cc2C(F)(F)F)c1 [Compound J305, (Z)-1-(3-(5-Methyl-2-(3,3,3-trifluoropropoxy)phenyl)-4-oxothiazolidin-2-ylidene)-3-(2-(trifluoromethyl)-4-(1-(5-(trifluoromethyl)pyridin-2-yl)-1H-1,2,4-triazol-3-yl)phenyl)urea] | 50 to 100 | 50 to 100 | –
CCN(C(C)=O)c1ccc(C(C)C)c(N2C(=O)CS/C2=N\C(=O)Nc2ccc(-c3ncn(-c4ccc(OC(F)(F)F)cc4)n3)cc2C)c1 [Compound J200, (Z)-N-Ethyl-N-(4-isopropyl-3-(2-(((2-methyl-4-(1-(4-(trifluoromethoxy)phenyl)-1H-1,2,4-triazol-3-yl)phenyl)carbamoyl)imino)-4-oxothiazolidin-3-yl)phenyl)acetamide] | 50 to 100 | 50 to 100 | –
Cc1cc(-c2ncn(-c3ccc(OC(F)(F)F)cn3)n2)ccc1NC(=O)/N=C1\SCC(=O)N1c1cc(N(C)C)ccc1C(C)C [Compound J251, (Z)-1-(3-(5-(Dimethylamino)-2-isopropylphenyl)-4-oxothiazolidin-2-ylidene)-3-(2-methyl-4-(1-(5-(trifluoromethoxy)pyridin-2-yl)-1H-1,2,4-triazol-3-yl)phenyl)urea] | 50 to 100 | 50 to 100 | –
Cc1cc(-c2ncn(-c3ccc(C(F)(F)F)cc3)n2)ccc1NC(=O)/N=C1\SCC(=O)N1c1cccc(C)c1COCC(F)(F)F [Compound J579] | – | – | CL rating ([1]; Table ABC, species CL): A (50-100); BAW rating ([2]; Table ABC, species BAW): A (50-100)
Cc1ccc(OCCC(F)(F)F)c(N2C(=O)CS/C2=N\C(=O)Nc2ccc(-c3ncn(-c4ccc(S(F)(F)(F)(F)F)cc4)n3)cc2C(F)(F)F)c1 [Compound J629, (Z)-1-(3-(5-Methyl-2-(3,3,3-trifluoropropoxy)phenyl)-4-oxothiazolidin-2-ylidene)-3-(4-(1-(4-(pentafluoro-λ^6-sulfaneyl)phenyl)-1H-1,2,4-triazol-3-yl)-2-(trifluoromethyl)phenyl)urea] | – | – | pest or weed control at 50 µg/cm2 [1, 5]: 50 to 100%; pest or weed control at 50 µg/cm2 ([2]; read-out: BAW rating): 50 to 100%
Cc1ccc(OCC(F)(F)F)c(N2C(=O)CS/C2=N\C(=O)Nc2ccc(-c3ncn(-c4cccc(OC(F)(F)F)c4)n3)cc2F)c1 [Compound J121, (Z)-1-(2-Fluoro-4-(1-(3-(trifluoromethoxy)phenyl)-1H-1,2,4-triazol-3-yl)phenyl)-3-(3-(5-methyl-2-(2,2,2-trifluoroethoxy)phenyl)-4-oxothiazolidin-2-ylidene)urea] | 50 to 100 | 0 to 50 | –
CCOCc1ccc(C)cc1N1C(=O)CS/C1=N\C(=O)Nc1ccc(-c2ncn(-c3ccc(OC(F)(F)F)cc3)n2)cc1Br [Compound J221, (Z)-1-(2-Bromo-4-(1-(4-(trifluoromethoxy)phenyl)-1H-1,2,4-triazol-3-yl)phenyl)-3-(3-(2-(ethoxymethyl)-5-methylphenyl)-4-oxothiazolidin-2-ylidene)urea] | 50 to 100 | 50 to 100 | –
Cc1ccc(OCC(F)(F)F)c(N2C(=O)CS/C2=N\C(=O)Nc2ccc(-c3ncn(-c4ccc(OC(F)(F)F)cc4)n3)cc2Br)c1 [Compound J218, (Z)-1-(2-Bromo-4-(1-(4-(trifluoromethoxy)phenyl)-1H-1,2,4-triazol-3-yl)phenyl)-3-(3-(5-methyl-2-(2,2,2-trifluoroethoxy)phenyl)-4-oxothiazolidin-2-ylidene)urea] | 50 to 100 | 50 to 100 | –
Cc1cccc(N2C(=O)CS/C2=N\C(=O)Nc2ccc(-c3ncn(-c4ccc(OC(F)(F)F)cc4)n3)cc2F)c1COCC(F)(F)F [Compound J566] | – | – | CL rating ([1]; Table ABC, species CL): A (50-100); BAW rating ([2]; Table ABC, species BAW): A (50-100)
